The values below come from ChEMBL document CHEMBL1255573, “Synthesis and biochemical characterization of a series of 17α-perfluoroalkylated estradiols as selective ligands for estrogen receptor α” (J Med Chem, 2010).

Test [1] has as its target T1, Estrogen receptor beta (Homo sapiens, UniProt Q92731). The test can be described thus: Agonist activity at ERbeta-LBD in human U2OS cells transfected with Gal4-DBD assessed as increase of transactivation activity after 18 hrs by luciferase reporter gene assay. The class given is functional, cell-based. As to conditions: for pEC50: u2os. (In a reporter assay the amount or activity of a reporter protein is the signal.)

In test [2] the target is T1, Estrogen receptor beta. Kind of test: Agonist activity at ERbeta-LBD in human U2OS cells transfected with Gal4-DBD assessed as increase of transactivation activity after 18 hrs by luciferase reporter gene assay relative to 17-beta-estradiol. The format is functional, cell-based.
The target in test [3] is T2, Estrogen receptor (Homo sapiens, UniProt P03372).
T2 sequence (P03372 whole entry): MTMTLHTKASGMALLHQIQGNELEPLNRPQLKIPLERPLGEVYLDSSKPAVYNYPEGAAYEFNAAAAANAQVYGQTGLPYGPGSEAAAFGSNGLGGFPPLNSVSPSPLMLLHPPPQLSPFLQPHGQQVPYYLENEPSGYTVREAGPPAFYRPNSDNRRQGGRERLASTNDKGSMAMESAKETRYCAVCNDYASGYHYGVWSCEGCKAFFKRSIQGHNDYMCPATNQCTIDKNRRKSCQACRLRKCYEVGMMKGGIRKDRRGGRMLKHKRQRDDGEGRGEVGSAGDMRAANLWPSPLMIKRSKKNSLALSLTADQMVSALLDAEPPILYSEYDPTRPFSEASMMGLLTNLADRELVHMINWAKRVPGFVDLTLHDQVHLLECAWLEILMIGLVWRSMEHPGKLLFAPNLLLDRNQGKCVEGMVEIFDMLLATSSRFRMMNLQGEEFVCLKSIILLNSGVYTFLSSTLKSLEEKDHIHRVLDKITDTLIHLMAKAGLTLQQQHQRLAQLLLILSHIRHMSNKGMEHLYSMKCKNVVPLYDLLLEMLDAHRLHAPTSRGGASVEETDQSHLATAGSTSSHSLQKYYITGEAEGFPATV
The test can be described thus: Antagonist activity at ERalpha-LBD in human U2OS cells transfected with Gal4-DBD assessed as inhibition of transactivation activity after 18 hrs by luciferase reporter gene assay. The format is functional, cell-based.

The target in test [4] is T3, Glucocorticoid receptor (Homo sapiens, UniProt P04150).
T3 sequence (P04150 whole entry): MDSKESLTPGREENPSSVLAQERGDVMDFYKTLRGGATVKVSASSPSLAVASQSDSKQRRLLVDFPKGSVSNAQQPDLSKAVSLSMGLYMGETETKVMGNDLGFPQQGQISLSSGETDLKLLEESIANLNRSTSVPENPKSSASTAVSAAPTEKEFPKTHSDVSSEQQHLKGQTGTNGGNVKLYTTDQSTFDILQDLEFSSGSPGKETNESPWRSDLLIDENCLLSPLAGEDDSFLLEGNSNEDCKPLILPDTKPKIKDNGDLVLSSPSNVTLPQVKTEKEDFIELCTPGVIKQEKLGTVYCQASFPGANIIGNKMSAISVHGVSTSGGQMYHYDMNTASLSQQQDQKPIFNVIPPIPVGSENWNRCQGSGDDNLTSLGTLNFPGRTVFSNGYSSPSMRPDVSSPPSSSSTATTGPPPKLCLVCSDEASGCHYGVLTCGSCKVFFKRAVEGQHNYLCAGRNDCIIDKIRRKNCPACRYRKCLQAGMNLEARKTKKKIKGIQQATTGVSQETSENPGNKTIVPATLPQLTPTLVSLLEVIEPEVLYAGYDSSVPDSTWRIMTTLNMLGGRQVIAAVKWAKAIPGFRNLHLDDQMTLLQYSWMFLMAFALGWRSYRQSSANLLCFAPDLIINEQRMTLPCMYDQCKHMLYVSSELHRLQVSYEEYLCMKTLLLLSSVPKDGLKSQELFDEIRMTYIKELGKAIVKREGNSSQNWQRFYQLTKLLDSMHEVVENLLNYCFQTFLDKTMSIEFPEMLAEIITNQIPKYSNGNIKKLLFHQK
Description: Antagonist activity at glucocorticoid receptor-LBD in human U2OS cells transfected with Gal4-DBD assessed as inhibition of transactivation activity after 18 hrs by luciferase reporter gene assay

For test [5], the target named is T3, Glucocorticoid receptor. The source holds these as a separate data set.
Description: Agonist activity at glucocorticoid receptor-LBD in human U2OS cells transfected with Gal4-DBD assessed as increase of transactivation activity after 18 hrs by luciferase reporter gene assay
For test [6], the target named is T4, Mineralocorticoid receptor (Homo sapiens, UniProt P08235).
T4 sequence (P08235 whole entry): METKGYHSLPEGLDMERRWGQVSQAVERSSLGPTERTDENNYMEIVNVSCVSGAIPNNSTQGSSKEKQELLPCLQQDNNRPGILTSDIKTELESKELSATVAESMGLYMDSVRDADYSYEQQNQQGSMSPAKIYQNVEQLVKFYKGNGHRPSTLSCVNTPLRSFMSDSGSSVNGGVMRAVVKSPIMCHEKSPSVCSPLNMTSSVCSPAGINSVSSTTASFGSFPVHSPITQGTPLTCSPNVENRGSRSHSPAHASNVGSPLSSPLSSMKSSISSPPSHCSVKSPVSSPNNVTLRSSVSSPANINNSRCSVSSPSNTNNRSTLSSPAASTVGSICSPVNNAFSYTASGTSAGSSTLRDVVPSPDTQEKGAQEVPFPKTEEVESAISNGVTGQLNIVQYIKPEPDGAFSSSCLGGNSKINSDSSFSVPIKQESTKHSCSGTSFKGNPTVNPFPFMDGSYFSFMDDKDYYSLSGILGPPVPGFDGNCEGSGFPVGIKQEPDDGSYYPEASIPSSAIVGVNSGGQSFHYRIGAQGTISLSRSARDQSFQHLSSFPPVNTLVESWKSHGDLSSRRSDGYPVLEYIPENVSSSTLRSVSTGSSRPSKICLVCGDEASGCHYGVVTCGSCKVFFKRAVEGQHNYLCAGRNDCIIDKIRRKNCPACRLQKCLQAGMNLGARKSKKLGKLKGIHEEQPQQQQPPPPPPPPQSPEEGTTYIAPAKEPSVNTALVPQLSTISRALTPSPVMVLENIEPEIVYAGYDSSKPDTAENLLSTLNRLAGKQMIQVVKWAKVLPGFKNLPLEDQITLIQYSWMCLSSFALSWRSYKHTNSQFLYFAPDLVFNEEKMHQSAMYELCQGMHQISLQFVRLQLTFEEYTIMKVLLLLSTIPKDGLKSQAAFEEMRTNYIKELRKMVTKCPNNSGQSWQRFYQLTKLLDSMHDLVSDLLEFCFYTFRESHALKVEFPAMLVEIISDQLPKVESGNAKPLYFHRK
Kind of test: Agonist activity at mineralocorticoid receptor-LBD in human U2OS cells transfected with Gal4-DBD assessed as increase of transactivation activity after 18 hrs by luciferase reporter gene assay. The class given is functional, cell-based.

The target in test [7] is T1, Estrogen receptor beta. The test can be described thus: Antagonist activity at ERbeta-LBD in human U2OS cells transfected with Gal4-DBD assessed as inhibition of transactivation activity after 18 hrs by luciferase reporter gene assay. The format is functional, cell-based.
The target of test [8] is T2, Estrogen receptor. Kind of test: Agonist activity at ERalpha-LBD in human U2OS cells transfected with Gal4-DBD assessed as increase of transactivation activity after 18 hrs by luciferase reporter gene assay. The format is functional, cell-based. The note with it: for pEC50: u2os.
Test [9] deals with T4, Mineralocorticoid receptor. Kind of test: Antagonist activity at mineralocorticoid receptor-LBD in human U2OS cells transfected with Gal4-DBD assessed as inhibition of transactivation activity after 18 hrs by luciferase reporter gene assay. The format is functional, cell-based. The note with it: for pIC50: u2os.

T1 sequence (Q92731 whole entry, the tested form may be a part): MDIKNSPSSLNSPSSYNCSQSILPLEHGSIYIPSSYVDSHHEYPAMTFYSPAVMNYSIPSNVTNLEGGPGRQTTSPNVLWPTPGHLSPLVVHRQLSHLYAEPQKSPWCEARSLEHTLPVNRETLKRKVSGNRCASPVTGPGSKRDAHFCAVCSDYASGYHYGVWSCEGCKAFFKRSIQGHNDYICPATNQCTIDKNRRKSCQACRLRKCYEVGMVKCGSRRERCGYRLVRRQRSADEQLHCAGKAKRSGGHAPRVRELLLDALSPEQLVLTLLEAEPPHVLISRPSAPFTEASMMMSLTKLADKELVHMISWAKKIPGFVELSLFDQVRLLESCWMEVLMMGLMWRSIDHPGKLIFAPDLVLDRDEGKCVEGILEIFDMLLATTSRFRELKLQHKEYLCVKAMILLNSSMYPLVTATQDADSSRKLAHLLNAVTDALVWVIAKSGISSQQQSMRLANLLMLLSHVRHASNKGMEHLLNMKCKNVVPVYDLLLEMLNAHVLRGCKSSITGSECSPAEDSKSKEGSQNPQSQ

In general, EC50 refers to the concentration needed to bring the measured effect to its halfway point. What is called IC50 is the concentration that inhibits the measured activity by half. A word on the pIC50: it is the negative decadic logarithm of the IC50, by convention in mol/L. Regarding `C[C@]12CC[C@@H]3c4ccc(O)cc4CC[C@H]3[C@@H]1CC[C@@]2(O)C/C=C/CC(F)(F)C(F)(F)C(F)(F)F`, the EC50 on Estrogen receptor beta [1] was 2400 nM; at Glucocorticoid receptor [5], under 15.8 µM; in test [6] it was under 15.8 µM; at Estrogen receptor [8], 485 nM. The Activity at Estrogen receptor beta [2] came out at 0.02%. Moreover, the values for the IC50 on Estrogen receptor [3], against Glucocorticoid receptor [4] and on Estrogen receptor beta [7] were under 15.8 µM, under 5.5 µM and under 15.8 µM, respectively. Also, the pIC50 in test [9] was over 4.901.

In the case of `COc1ccc2c(c1)CC[C@@H]1[C@@H]2CC[C@@]2(C)[C@H]1CC[C@@]2(O)/C=C/CC(F)(F)C(F)(F)C(F)(F)F`, the EC50 on Estrogen receptor beta [1] was 5190 nM; at Glucocorticoid receptor [5] it was under 15.8 µM; in test [6], under 15.8 µM; at Estrogen receptor [8], 4030 nM. For the same molecule, the Activity on Estrogen receptor beta [2] is 0.01%. Further, the IC50 was under 15.8 µM on Estrogen receptor [3], under 9.25 µM at Glucocorticoid receptor [4] and under 15.8 µM on Estrogen receptor beta [7]. In [9], the pIC50 is recorded as over 4.841.

On to `C[C@]12CC[C@@H]3c4ccc(O)cc4CC[C@H]3[C@@H]1CC[C@@]2(O)/C=C/CC(F)(F)C(F)(F)C(F)(F)C(F)(F)C(F)(F)C(F)(F)F`, for which the EC50 on Estrogen receptor beta [1] was under 2750 nM; on Glucocorticoid receptor [5] it was under 15.8 µM; in test [6], under 15.8 µM; at Estrogen receptor [8], 2080 nM. Besides, the IC50 at Estrogen receptor [3] was under 15.8 µM; at Glucocorticoid receptor [4], under 15.8 µM; on Estrogen receptor beta [7] it was under 11.9 µM; in test [9], under 5.36 µM.

By pEC50 is commonly meant the EC50 on a negative log10 scale, so that one unit is a factor of ten. As to `C[C@]12CC[C@@H]3c4ccc(O)cc4CC[C@H]3[C@@H]1CC[C@@]2(O)/C=C/CC(F)(C(F)(F)F)C(F)(F)F`, the pEC50 at Estrogen receptor beta [1] is given as over 4.713. Also, the IC50 at Estrogen receptor [3] is under 15.8 µM; against Glucocorticoid receptor [4] it was 13.6 µM; on Estrogen receptor beta [7] it was under 15.7 µM; in test [9], under 6.65 µM. Moreover, the EC50 is under 15.8 µM on Glucocorticoid receptor [5], under 15.8 µM in test [6] and 9950 nM on Estrogen receptor [8].

As to `COc1ccc2c(c1)CC[C@@H]1[C@@H]2CC[C@@]2(C)[C@H]1CC[C@@]2(O)C/C=C/CC(F)(F)C(F)(F)C(F)(F)F`, the pEC50 on Estrogen receptor beta [1] is on record as over 4.817. Besides, the IC50 at Estrogen receptor [3], at Glucocorticoid receptor [4] and at Estrogen receptor beta [7] was under 15.8 µM each time. The concentration giving a half-maximal response (EC50) was under 15.8 µM at Glucocorticoid receptor [5], under 15.8 µM in test [6] and 1660 nM on Estrogen receptor [8]. Further, the pIC50 in test [9] is listed as over 4.8.

As for `C[C@]12CC[C@@H]3c4ccc(O)cc4CC[C@H]3[C@@H]1CC[C@@]2(O)/C=C/CC(F)(F)C(F)(F)C(F)(F)F`, the EC50 on Estrogen receptor beta [1] was 129 nM; at Glucocorticoid receptor [5], under 15.8 µM; in test [6], under 15.8 µM; on Estrogen receptor [8], 35.5 nM. In addition, the Activity at Estrogen receptor beta [2] was determined as 0.35%. Moreover, the IC50 is under 15.8 µM on Estrogen receptor [3], 3.13 µM against Glucocorticoid receptor [4], under 12.4 µM on Estrogen receptor beta [7] and 3.81 µM in test [9].

As to `C[C@]12CC[C@@H]3c4ccc(O)cc4CC[C@H]3[C@@H]1CC[C@@]2(O)C/C=C/CC(F)(C(F)(F)F)C(F)(F)F`, at Estrogen receptor beta [1], the pEC50 was over 4.8. Also, the IC50 at Estrogen receptor [3] is under 15.8 µM; against Glucocorticoid receptor [4] it was under 13.5 µM; at Estrogen receptor beta [7], under 4.05 µM; in test [9], 5.14 µM. Further, the EC50 on Glucocorticoid receptor [5] was under 15.8 µM; in [6], under 15.8 µM; on Estrogen receptor [8], 403 nM.

In the case of `COc1ccc2c(c1)CC[C@@H]1[C@@H]2CC[C@@]2(C)[C@H]1CC[C@@]2(O)C/C=C/CC(F)(F)C(F)(F)C(F)(F)C(F)(F)C(F)(F)C(F)(F)F`, the pEC50 on Estrogen receptor beta [1] was over 4.902; on Estrogen receptor [8], over 4.8. For the same molecule, the IC50 at Estrogen receptor [3], against Glucocorticoid receptor [4] and at Estrogen receptor beta [7] was under 15.8 µM in each case. Also, the figures for the concentration giving a half-maximal response (EC50) (on Glucocorticoid receptor [5]; in test [6]) were 0.00673 µM and under 15.8 µM, respectively. In addition, the pIC50 in test [9] is over 4.8.

With `C[C@]12CC[C@@H]3c4ccc(O)cc4CC[C@H]3[C@@H]1CC[C@@]2(O)C/C=C/CC(F)(F)C(F)(F)C(F)(F)C(F)(F)C(F)(F)C(F)(F)F`, the EC50 was 52 nM at Estrogen receptor beta [1], under 15.8 µM on Glucocorticoid receptor [5], under 15.8 µM in test [6] and 1030 nM on Estrogen receptor [8]. Besides, at Estrogen receptor beta [2], the Activity came out at 0.88%. For the same molecule, the IC50 at Estrogen receptor [3] was under 15.8 µM; against Glucocorticoid receptor [4], under 15.8 µM; at Estrogen receptor beta [7] it was under 15.8 µM; in [9], under 4.82 µM.

As to `COc1ccc2c(c1)CC[C@@H]1[C@@H]2CC[C@@]2(C)[C@H]1CC[C@@]2(O)/C=C/CC(F)(F)C(F)(F)C(F)(F)C(F)(F)C(F)(F)C(F)(F)F`, the results for the EC50 (at Estrogen receptor beta [1]; on Glucocorticoid receptor [5]; in test [6]) were under 8340 nM, under 15.8 µM and under 15.8 µM, respectively. In addition, the IC50 on Estrogen receptor [3], against Glucocorticoid receptor [4] and at Estrogen receptor beta [7] was under 15.8 µM each time. Further, the pEC50 at Estrogen receptor [8] is on record as over 4.8. The pIC50 in test [9] was over 4.8.
